What was measured:
[1] = test system: HFF (Human Foreskin Fibroblast) cells; experiment: Cytotoxicity test (sulforhodamine B) on HFF cells; assay type: cell-based
Procedure: Culturing of HFF (Human Foreskin Fibroblast Cells in 96-Well Plate From a 75 cm^2 flask of HFF cells at confluence, the culture medium was removed, and then 2 mL of trypsin-EDTA (0.025% trypsin and 0.01% EDTA—Ethylenediaminetetraacetic acid) was added (at 37° C.). The flask was then briefly rinsed and the trypsin was removed. 2 mL of trypsin-EDTA was subsequently added and the flask was incubated for 5 minutes in an oven at 37° C.
5 ml of culture medium (minimal essential medium—MEM (PARA Laboratories GmbH)+Glutamine (2 mM)+Fungizone (2.5 μg/mL)+Penicillin (100 units/mL)+Streptomycin (100 μg/mL)+decomplemented Foetal Calf Serum 15%) was added and then the flask was rinsed with a pipette. The medium and cells were recovered in a tube. Counting on the Malassez counting chamber was then performed.
The cells were subsequently centrifuged at 200 g, for 7 minutes, and then the supernatant was removed. The pellet was taken up in the culture medium in a manner so as to obtain 10^5 cells/mL.
200 μL of this suspension per well was distributed, while leaving empty the wells of columns 1 and 12 and rows A and H. The wells that were left empty were filled with 200 μL of culture medium in order to prevent evaporation.
When the cells had reached confluence in the wells (about 48 hours), the medium was aspirated by making use of a vacuum extractor pump and then 200 μL of culture medium containing the various polysaccharides to be tested (the latter are tested at 50, 100, and 200 μg/mL) was added.
Each concentration was tested in triplicate. […]
The proteins were solubilised by using 200 μL of Tris-Base (10 mM) for 5 minutes on a plate with stirring at ambient temperature. The OD (Optical Density) at 550 nm was measured by making use of a microplate reader (Multiskan FC357, Thermo Scientific).
The mean of the OD and the standard deviation have been calculated for each sample tested in order to arrive at a conclusion with respect to the toxicity of the products.

[2] = test system: Nosema ceranae; experiment: Inhibitory activity in vivo on Nosema in honey bees
Procedure: The results presented here have been obtained from the summer honey bees.
After recovering one brood chamber frame (or more as per the needs in honey bees) from the apiary by means of a glass frame holder, the latter was placed in an oven at 34° C. for a period of 24 to 48 hours in a manner so as to allow the honey bees to emerge from their cells. Then, the young honey bees were retrieved from the frame by making use of a pair of entomologist's forceps and placed in the beekeeping boxes (supers) on the basis of 50 honey bees/box. ⅙^th of a tube stick of PseudoQueen (Contech Enterprises, Canada) was added in each of the beekeeping boxes.
Each polysaccharide treatment was carried out in triplicate (three boxes/treatment). Each test operation contained a “healthy honey bees” control (honey bees not infected and not treated), an “infected honey bees” control (honey bees infected experimentally and not treated) and a fumagillin control; with these controls also being in triplicate. […]
Over the course of the post-Infection phase (a time period of 20 days), the dead honey bees were counted and removed on a daily basis from each of the boxes in order to track and monitor mortality. […]

SMILES	Conclusion ([1]; HFF cells, culture medium containing 20% of DMSO, 96 hours)	Viability (%) ([1]; HFF cells, positive control: culture medium containing 20% of DMSO, 96 hours of incubation)	Mortality at 20 days post-infection (%) ([2]; honey bees infected with 125,000 N. ceranae spores, syrup supplemented with 1 μg/mL fumagillin, fed 3 days before and 20 days after infection)	Change in parasite load (decrease) ([2]; spore count at 20 days vs infected honey bees control, syrup with 1 μg/mL fumagillin)	Viability (%) ([1]; human, 96 h, 1 μg/mL)
C[S+](C)[O-] [DMSO Positive Control, DMSO]	Cytotoxic: control validated	6.8 +/− 1.4%			
CO[C@@H]1[C@H](OC(=O)/C=C/C=C/C=C/C=C/C(=O)O)CC[C@]2(CO2)[C@H]1[C@@]1(C)O[C@@H]1CC=C(C)C [Fumagillin Control, fumagillin]			25.9 +/− 16.7%	Decrease of 63.4%	99.1 +/− 12.2%

Reference: US9827277B2, “Sulphated polysaccharide composition” (UNIVERSITÉ BLAISE PASCAL—CLERMONT II, priority 2012, dated 2017)
